Test results: patent publication US7462614B2, “Imidazotriazine compounds” (Smithkline Beecham Corporation, priority 2003, dated 2008)
pIC50: −log10 of the molar value.

Experiments:
[1] = tested on: breast tumor (MCF7) cell line; assay: Methylene Blue Growth Inhibition Assay, MCF7; format: cell-based; conditions: Homo sapiens, 72 h; MCF7, 3 days; read-out: MeB Cell Line IC50
From the text: (§1) II. Methylene Blue Growth Inhibition Assay
(§2) Medium was removed by aspiration.

[2] = biological target: T1, truncated human PLK1 (kinase domain) (Homo sapiens, UniProt P53350); assay: Assay for Inhibition of PLK1 (33P SPA enzyme activity); format: biochemical; conditions: 1 μM ATP, 2 nM enzyme; read-out: Ave pIC50 PLK Enzyme Inhibition (converted)
T1 construct: made in house; host or cells: baculovirus-infected T. ni insect cells
T1 sequence (P53350 21-346): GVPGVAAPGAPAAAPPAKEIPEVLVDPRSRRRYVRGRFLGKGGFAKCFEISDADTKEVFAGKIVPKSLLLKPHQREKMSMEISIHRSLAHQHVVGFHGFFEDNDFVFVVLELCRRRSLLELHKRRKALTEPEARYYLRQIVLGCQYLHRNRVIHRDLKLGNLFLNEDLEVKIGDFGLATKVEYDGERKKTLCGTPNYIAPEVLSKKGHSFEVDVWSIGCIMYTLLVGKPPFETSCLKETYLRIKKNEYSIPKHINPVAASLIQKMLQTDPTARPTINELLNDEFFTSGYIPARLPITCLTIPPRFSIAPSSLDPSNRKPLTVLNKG
Summary of the method: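 Enzyme is the 6×His-tagged PLK1 kinase domain, purified by Ni-chelate and gel filtration. Compounds added in DMSO, then enzyme; reaction stopped with EDTA/streptavidin SPA bead mix containing 60 μM ATP, read by 33P scintillation proximity.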

[3] = tested on: lung (H460) tumor cell line; assay: Methylene Blue Growth Inhibition Assay, H460; format: cell-based; conditions: Homo sapiens, NCI-H460, 72 h; H460, 3 days; read-out: MeB Cell Line IC50
From the text: as §1, §2

[4] = tested on: colon (RKO) tumor cell line; assay: Methylene Blue Growth Inhibition Assay, RKO; format: cell-based; conditions: Homo sapiens, 72 h, 3 days, read-out: MeB Cell Line IC50
From the text: as §1, §2

[5] = tested on: Normal Human foreskin fibroblasts (HFF); assay: Methylene Blue Growth Inhibition Assay, HFF; format: cell-based; conditions: 72 h, 3 days, read-out: MeB Cell Line IC50
From the text: as §1, §2

[6] = tested on: colon (HCT116) tumor cell line; assay: Methylene Blue Growth Inhibition Assay, HCT116; format: cell-based; conditions: Homo sapiens, HCT-116, 72 h; HCT116, 3 days; read-out: MeB Cell Line IC50
From the text: as §1, §2

[7] = tested on: prostate (PC3) tumor cell line; assay: Methylene Blue Growth Inhibition Assay, PC3; format: cell-based; conditions: Homo sapiens, 72 h; PC3, 3 days; read-out: MeB Cell Line IC50
From the text: as §1, §2

[8] = tested on: MDA435; assay: cells; conditions: MDA435, 72 h, read-out: MeB Cell Line IC50
[9] = tested on: IMR90; assay: cells; conditions: Homo sapiens, IMR-90, 72 h, read-out: MeB Cell Line IC50
[10] = tested on: SAOS2; assay: cells; conditions: Homo sapiens, SAOS-2, 72 h, read-out: MeB Cell Line IC50
[11] = tested on: COLO205; assay: cells; conditions: Homo sapiens, COLO 205, 72 h, read-out: MeB Cell Line IC50

Row | Structure (SMILES) | pIC50 [1] | IC50 [2] [µM] | pIC50 [3] | pIC50 [4] | pIC50 [5] | pIC50 [6] | pIC50 [7] | pIC50 [8] | pIC50 [9] | pIC50 [10] | pIC50 [11]
1 | COc1cc(Nc2ncc3c(C)nc(-c4cccc(C(N)=O)c4)n3n2)cc(OC)c1OC [Example 16, 3-{5-Methyl-2-[(3,4,5-trimethoxyphenyl)amino]imidazo[5,1-f][1,2,4]triazin-7-yl}benzamide] | 4.52 to 5.00 | 0.1 to 10 | 4.52 to 5.00 | 4.52 to 5.00 | 4.52 to 5.00 | 4.52 to 5.00 | 4.52 to 5.00 |  |  |  | 
2 | COc1cc(Nc2ncc3c(C)nc(-c4ccccc4)n3n2)cc(OC)c1OC [Example 1, 5-Methyl-7-phenyl-N-(3,4,5-trimethoxyphenyl)imidazo[5,1-f][1,2,4]triazin-2-amine] | 5.00 to 6.00 |  | 5.00 to 6.00 | 5.00 to 6.00 | 4.52 to 5.00 | 5.00 to 6.00 | 4.52 to 5.00 | 5.00 to 6.00 | 4.52 to 5.00 | 5.00 to 6.00 | 5.00 to 6.00
3 | Cc1nc(-c2cccc(C(F)(F)F)c2)n2nc(Nc3cccc(CCO)c3)ncc12 [Example 44, 2-[3-({5-Methyl-7-[3-(trifluoromethyl)phenyl]imidazo[5,1-f][1,2,4]triazin-2-yl}amino)phenyl]ethanol] | 4.52 to 5.00 | < 0.1 | 5.00 to 6.00 | 5.00 to 6.00 | 4.52 to 5.00 | 5.00 to 6.00 | 4.52 to 5.00 |  |  |  | 
4 | Cc1nc(-c2cccc(C(F)(F)F)c2)n2nc(Nc3cccc(CNC(=O)OC(C)(C)C)c3)ncc12 [Example 48, tert-Butyl 3-({5-methyl-7-[3-(trifluoromethyl)phenyl]imidazo[5,1-f][1,2,4]triazin-2-yl}amino)benzylcarbamate] | 4.52 to 5.00 | 0.1 to 10 | 4.52 to 5.00 | 5.00 to 6.00 | 4.52 to 5.00 | 4.52 to 5.00 | 4.52 to 5.00 |  |  |  | 
5 | COc1cc(Nc2ncc3c(C)nc(-c4cccc(Br)c4)n3n2)cc(OC)c1OC [Example 9, 7-(3-Bromophenyl)-5-methyl-N-(3,4,5-trimethoxyphenyl)imidazo-[5,1-f][1,2,4]triazin-2-amine] | 5.00 to 6.00 | < 0.1 | 5.00 to 6.00 | 5.00 to 6.00 | 4.52 to 5.00 | 5.00 to 6.00 | 4.52 to 5.00 |  |  |  | 
6 | Cc1nc(-c2ccccc2)n2nc(Nc3cccc(CCO)c3)ncc12 [Example 19, 2-{3-[(5-Methyl-7-phenylimidazo[5,1-f][1,2,4]triazin-2-yl)amino]phenyl}ethanol] | 5.00 to 6.00 | < 0.1 | 5.00 to 6.00 | 5.00 to 6.00 | 4.52 to 5.00 | 5.00 to 6.00 | 4.52 to 5.00 |  |  |  | 
7 | CC(=O)Nc1cccc(Nc2ncc3c(C)nc(-c4cccc(C(F)(F)F)c4)n3n2)c1 [Example 47, N-[3-({5-Methyl-7-[3-(trifluoromethyl)phenyl]imidazo[5,1-f][1,2,4]triazin-2-yl}amino)phenyl]acetamide] | 4.52 to 5.00 | < 0.1 | 4.52 to 5.00 | 4.52 to 5.00 | 4.52 to 5.00 | 5.00 to 6.00 | 4.52 to 5.00 |  |  |  | 
8 | COc1cc(Nc2ncc3c(C)nc(-c4ccc(C(F)(F)F)cc4)n3n2)cc(OC)c1OC [Example 24, 5-Methyl-7-[4-(trifluoromethyl)phenyl]-N-(3,4,5-trimethoxy-phenyl)imidazo[5,1-f][1,2,4]triazin-2-amine] | 4.52 to 5.00 | 0.1 to 10 | 4.52 to 5.00 | 4.52 to 5.00 | 4.52 to 5.00 | 4.52 to 5.00 | 4.52 to 5.00 |  |  |  | 
9 | Cc1nc(-c2ccccc2)n2nc(Nc3cccc(CCS(=O)(=O)O)c3)ncc12 [Example 57, 2-{3-[(5-Methyl-7-phenylimidazo[5,1-f][1,2,4]triazin-2-yl)amino]phenyl}ethanesulfonic acid] | 4.52 to 5.00 | < 0.1 | 4.52 to 5.00 | 4.52 to 5.00 | 4.52 to 5.00 | 4.52 to 5.00 | 4.52 to 5.00 |  |  |  | 
